These results are taken from patent US20120053165A1, “Novel Phenyl Imidazoles and Phenyl Triazoles As Gamma-Secretase Modulators” (Pfizer Inc., priority 2009, published 2012).

Structures can show the parent of a compound that is named as a salt.
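Also: Aβ(1-42) released into conditioned medium captured by ELISA after roughly 24 h compound exposure, vehicle and inhibitor controls defining maximal and minimal inhibition.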

The first assay relates to production of amyloid beta protein Aβ(1-42) in human WT-APP overexpressing CHO cells. To be noted: Homo sapiens, CHO, read-out: Aβ 42 IC50, Geometric mean of 2-8 determinations; human WT-APP overexpressing CHO cells.
Procedure: Cell-Based γ-Secretase Assay with ELISA Readout
The ability of compounds to modulate production of amyloid beta protein Aβ(1-42) was determined using human WT-APP overexpressing CHO cells. Cells were plated at 22,000 cells/100 μL well in 96 well tissue culture treated, clear plates (Falcon) in DMEM/F12 based medium and incubated for 24 hours at 37° C. […] Compounds were added in fresh medium to achieve 1% final DMSO. Appropriate vehicle and inhibitor controls were added to obtain maximum and minimum inhibition values for the assay before the plates were incubated for about 24 hours at 37° C.
Coating of ELISA assay plates was initiated by addition of 50 μL/well of an in house Aβ(1-42) specific antibody at (4 μg/mL) in 0.1 M NaHCO3 (pH 9.0) into black 384-well Maxisorp® plates (Nunc) and incubated overnight at 4° C. […] Ambient temperature incubation was allowed to proceed for a minimum of two hours before washing 2×100 μL with Wash Buffer (Dulbecco's PBS, 0.05% Tween 20). Assay Buffer (Dulbecco's PBS, 1.0% BSA (Sigma A7030), 0.05% Tween 20) 20 μL/well is then added.
After incubation overnight at 37° C., 5% CO2, 40 μL (in duplicate) of experimental conditioned media are transferred into wells of the blocked ELISA plates containing the capture antibody, followed by overnight incubation at 4° C.
After overnight incubation of the ELISA assay plates at 4° C., unbound Aβ peptides were removed thorough (4×100 μL) washes with Wash Buffer.
Broadly, the IC50 is the concentration that gives 50% inhibition. Take `COc1cc(C(=O)NCCCc2ccc(F)cc2)ccc1-n1cnc(C)c1` [Example 81, N-[3-(4-fluorophenyl)propyl]-3-methoxy-4-(4-methyl-1H-imidazol-1-yl)benzamide]: the IC50 stood at 504 nM.

Take `COc1cc(C(=O)N2CC[C@H](Oc3ccccc3C(F)(F)F)C2)ccc1-n1cnc(C)c1` [Example 34, 1-[2-methoxy-4-({(3S)-3-[2-(trifluoro-methyl)phenoxy]pyrrolidin-1-yl}carbonyl)phenyl]-4-methyl-1H-imidazole, formic acid salt]: the IC50 came out at 297 nM.

With `COc1cc(C(=O)NCC2COc3ccccc3C2)ccc1-n1cnc(C)c1` (stereo not shown) [Example 122, N-(3,4-dihydro-2H-chromen-3-ylmethyl)-3-methoxy-4-(4-methyl-1H-imidazol-1-yl)benzamide], the IC50 came to 976 nM.

Still in this assay, the particulars now being: Homo sapiens, CHO, read-out: Aβ 42 IC50, Geometric mean of at least 2 determinations; human WT-APP overexpressing CHO cells.
On to `COc1cc(C(=O)N2CC(COc3ccc(F)c(C)c3Cl)C2)ccc1-n1cnc(C)c1` [Example 136, 1-[4-({3-[(2-chloro-4-fluoro-3-methyl-phenoxy)methyl]azetidin-1-yl}carbonyl)-2-methoxyphenyl]-4-methyl-1H-imidazole trifluoroacetate salt], for which the IC50 was 311 nM.

For `CCc1ccccc1OCC1CN(C(=O)c2ccc(-n3cnc(C)c3)c(OC)c2)C1` [Example 140, 1-[4-({3-[(2-ethylphenoxy)methyl]azetidin-1-yl}carbonyl)-2-methoxyphenyl]-4-methyl-1H-imidazole trifluoroacetate salt], the IC50 was determined as 593 nM.

Turning to `COc1cc(C(=O)N2CC(COc3cccc4c3CCC4)C2)ccc1-n1cnc(C)c1` [Example 137, 1-[4-({3-[(2,3-dihydro-1H-inden-4-yloxy)methyl]azetidin-1-yl}carbonyl)-2-methoxyphenyl]-4-methyl-1H-imidazole trifluoroacetate salt], the IC50 is 411 nM.

Staying with this assay, now noted: Homo sapiens, CHO, read-out: Aβ 42 IC50, Single IC50 determination; human WT-APP overexpressing CHO cells.
On to `COc1cc(C(=O)N2CC(Oc3cc(Cl)ccc3Cl)C2)ccc1-n1cnc(C)c1` [Example 108, 1-(4-{[3-(2,5-dichlorophenoxy)azetidin-1-yl]carbonyl}-2-methoxyphenyl)-4-methyl-1H-imidazole], for which the IC50 was 738 nM.

The assay is the same for the next values; noted with them: Homo sapiens, CHO, read-out: GM Aβ 42B IC50, Geometric Mean of 2-8 Determinations; human WT-APP overexpressing CHO cells.
Take `COc1cc(C(=O)NCCc2cccc(Cl)c2)ccc1-n1cnc(C)n1` [Example 6, N-[2-(3-chlorophenyl)ethyl]-3-methoxy-4-(3-methyl-[1,2,4]triazol-1-yl)benzamide]: the IC50 worked out at 4210 nM.

For the molecule `COc1cc(C(=O)NCC(C)(O)c2ccc(Cl)cc2)ccc1-n1cnc(C)c1` (stereo not shown) [Example 2, N-[2-(4-chlorophenyl)-2-hydroxypropyl]-3-methoxy-4-(4-methyl-1H-imidazol-1-yl)benzamide], the IC50 is 942 nM.

For the molecule `C#CCOc1cc(C(=O)NCCc2cccc(Cl)c2)ccc1-n1cnc(C)c1` [Example 3, N-[2-(3-chlorophenyl)ethyl]-4-(4-methyl-1H-imidazol-1-yl)-3-(prop-2-yn-1-yloxy)benzamide], the IC50 worked out at 341 nM.

Still in this assay, the particulars now being: read-out: Aβ 42 IC50; Geometric mean of 2-8 determinations; human WT-APP overexpressing CHO cells.
For the molecule `COc1cc(C(=O)NCc2c(C)cccc2NS(C)(=O)=O)ccc1-n1cnc(C)c1` [Example 102, 3-methoxy-4-(4-methyl-1H-imidazol-1-yl)-N-{2-methyl-6-[(methyl-sulfonyl)amino]benzyl} benzamide], the IC50 stood at 689 nM.

Regarding `COc1cc(C(=O)N(Cc2cc(-c3ccccc3)ccc2C)C2CC2)ccc1-n1cnc(C)c1` [Example 123, N-cyclopropyl-3-methoxy-N-[(4-methylbi-phenyl-3-yl)methyl]-4-(4-methyl-1H-imidazol-1-yl) benzamide], the IC50 turned out to be 73 nM.

As for `COc1cc(C(=O)NCc2cc3ccccc3s2)ccc1-n1cnc(C)c1` [Example 87, N-(1-benzothien-2-ylmethyl)-3-methoxy-4-(4-methyl-1H-imidazol-1-yl) benzamide], the IC50 was found to be 560 nM.

For the molecule `COc1cc(C(=O)NC2CCc3ccccc3C2)ccc1-n1cnc(C)c1` (stereo not shown) [Example 114, 3-methoxy-4-(4-methyl-1H-imidazol-1-yl)-N-(1,2,3,4-tetrahydro-naphthalen-2-yl) benzamide], the IC50 worked out at 793 nM.

As for `COc1cc(C(=O)NCC2CCc3ccccc3C2)ccc1-n1cnc(C)c1` (stereo not shown) [Example 113, 3-methoxy-4-(4-methyl-1H-imidazol-1-yl)-N-(1,2,3,4-tetrahydro-naphthalen-2-ylmethyl) benzamide], the IC50 is 784 nM.

Take `COc1cc(C(=O)NCc2cnc(-c3ccccc3)s2)ccc1-n1cnc(C)c1` [Example 16, 3-methoxy-4-(4-methyl-1H-imidazol-1-yl)-N-[(2-phenyl-1,3-thiazol-5-yl)methyl] benzamide]: the IC50 turned out to be 283 nM.

Consider `COc1cc(C(=O)NCCc2nc3cccc(Cl)c3o2)ccc1-n1cnc(C)c1` [Example 68, N-[2-(7-chloro-1,3-benzoxazol-2-yl)ethyl]-3-methoxy-4-(4-methyl-1H-imidazol-1-yl) benzamide], for which the IC50 came out at 418 nM.

Consider `COc1cc(C(=O)NCc2cccc(C(F)(F)F)c2)ccc1-n1cnc(C)c1` [Example 14, 3-methoxy-4-(4-methyl-1H-imidazol-1-yl)-N-[3-(trifluoro-methyl)benzyl] benzamide], for which the IC50 was 447 nM.

As for `COc1cc(C(=O)N[C@@H]2CCC[C@@H]2Cc2cccc(F)c2)ccc1-n1cnc(C)c1` [Example 95, N-[(1R,2R)-2-(3-fluorobenzyl)cyclopentyl]-3-methoxy-4-(4-methyl-1H-imidazol-1-yl) benzamide], the IC50 worked out at 627 nM.

Take `COc1cc(C(=O)NCCc2cccc(Cl)c2)ccc1-n1cnc(C)c1` [Example 21, N-[2-(3-chloro-phenyl)ethyl]-3-methoxy-4-(4-methyl-1H-imidazol-1-yl) benzamide]: the IC50 worked out at 629 nM.

On to `COc1cc(C(=O)NCc2cc(F)cc(C(F)(F)F)c2)ccc1-n1cnc(C)c1` [Example 62, N-[3-fluoro-5-(trifluoromethyl)benzyl]-3-methoxy-4-(4-methyl-1H-imidazol-1-yl) benzamide], for which the IC50 worked out at 369 nM.

In the case of `COc1cc(C(=O)NCC2(c3ccc(Cl)cc3)CCCC2)ccc1-n1cnc(C)c1` [Example 36, N-{[1-(4-chlorophenyl)cyclopentyl]methyl}-3-methoxy-4-(4-methyl-1H-imidazol-1-yl) benzamide], the IC50 is 209 nM.

On to `COc1cc(C(=O)N[C@@H](C)c2cccc(-c3ccccc3)c2)ccc1-n1cnc(C)c1` [Example 126, N-[(1S)-1-biphenyl-3-ylethyl]-3-methoxy-4-(4-methyl-1H-imidazol-1-yl) benzamide], for which the IC50 amounted to 492 nM.

As to `COc1cc(C(=O)NCCc2cccc(C(F)(F)F)c2)ccc1-n1cnc(C)c1` [Example 24, 3-methoxy-4-(4-methyl-1H-imidazol-1-yl)-N-{2-[3-(tri-fluoromethyl)phenyl]ethyl} benzamide], the concentration for half-maximal inhibition (IC50) is 438 nM.

`COc1cc(C(=O)N[C@H](c2ccccc2)[C@@H](O)c2ccccc2)ccc1-n1cnc(C)c1` [Example 80, N-[(1R,2S)-2-hydroxy-1,2-diphenylethyl]-3-methoxy-4-(4-methyl-1H-imidazol-1-yl) benzamide]: the IC50 came out at 501 nM.

Consider `COc1cc(C(=O)NCc2nc(-c3ccc(Cl)cc3)no2)ccc1-n1cnc(C)c1` [Example 45, N-{[3-(4-chlorophenyl)-1,2,4-oxadiazol-5-yl]methyl}-3-methoxy-4-(4-methyl-1H-imidazol-1-yl) benzamide, formic acid salt], for which the IC50 amounted to 730 nM.

As to `COc1cc(C(=O)NC(CCC(C)C)c2ccc(C(F)(F)F)cc2)ccc1-n1cnc(C)c1` (stereo not shown) [Example 29, 3-methoxy-4-(4-methyl-1H-imidazol-1-yl)-N-{4-methyl-1-[4-(trifluoro-methyl)phenyl]pentyl} benzamide], the IC50 turned out to be 861 nM.

As to `COc1cc(C(=O)NCc2csc(-c3ccc(Cl)cc3)n2)ccc1-n1cnc(C)c1` [Example 53, N-{[2-(4-chlorophenyl)-1,3-thiazol-4-yl]methyl}-3-methoxy-4-(4-methyl-1H-imidazol-1-yl) benzamide], the IC50 was 306 nM.
